Reference: patent US10689425B2, “Collagen-binding synthetic peptidoglycans, preparation, and methods of use” (Purdue Research Foundation, priority 2008, dated 2020)

Experiments:
collagen type I gels = biological target: T1, collagen type I gels (Bos taurus, UniProt P02453+P02465); assay: Viscoelastic characterization of collagen type I gels (rheometer); settings: 5:1, 10:1 and 30:1 collagen:additive; 0.1-1.0 Hz, 1.0 Pa
T1 construct: purchased Inamed, Freemont, Calif; (Nutragen)
Experimental: The PTFE printing restricted gels to the 20 mm diameter wettable region. Gels were formed in a humidified incubator at 37° C. overnight prior to mechanical testing. Slides were clamped on the rheometer stage of a AR-G2 rheometer with 20 mm stainless steel parallel plate geometry (TA Instruments, New Castle, Del.), and the 20 mm stainless steel parallel plate geometry was lowered to a gap distance of 600 μm using a normal force control of 0.25N to avoid excessive shearing on the formed gel. An iterative process of stress and frequency sweeps was performed on gels of collagen alone to determine the linear range. All samples were also tested over a frequency range from 0.1 Hz to 1.0 Hz and a controlled stress of 1.0 Pa. Statistical analysis using Design Expert software ([…], Minneapolis, Minn.) was performed at each frequency and a 5-way ANOVA used to compare samples. […] Viscoelastic characterization was performed as described in EXAMPLE 17 on gels formed with varying ratios of collagen to additive (treatment).

[1] = tested on: Human coronary artery smooth muscle cells (HCA SMC); assay: Gel compaction by cells seeded in collagen gels; assay type: cell-based; settings: Day 7
Experimental: Human coronary artery smooth muscle cells (HCA SMC) (Cascade Biologics) were cultured in growth medium (Medium 231 supplemented with smooth muscle growth factor). Cells from passage 3 were used for all experiments. Differentiation medium (Medium 231 supplemented with 1% FBS and 1× pen/strep) was used for all experiments unless otherwise noted.
Collagen gels were prepared with each additive as described with the exception that the 1×PBS example addition was omitted to accommodate the addition of cells in media. After incubating on ice for 30 min, HCA SMCs in differentiation medium were added to the gel solutions to a final concentration of 1×10^6 cells/mL. Gels were formed in quadruplicate in 48-well non-tissue culture treated plates (Costar) for 6 hrs before adding 500 μL/well differentiation medium. Gels were freed from the well edges after 24 hrs. Medium was changed every 2-3 days and images for compaction were taken at the same time points using a Gel Doc System (Bio-Rad). The cross-sectional area of circular gels correlating to degree of compaction was determined using ImageJ software (NIH). Gels containing no cells were used as a negative control and cells in collagen gels absent additive were used as a positive control. By day 10 all gels had compacted to approximately 10% of the original gel area, and differences between additives were small.

HCA SMCs = assay: Elastin content by Fastin elastin assay; assay type: cell-based, Human; settings: gels cultured for 10 days
Experimental: Differentiation medium was changed every three days and gels were cultured for 10 days. […] Gels were rinsed in 1×PBS overnight to remove serum protein, and gels were tested for elastin content using the Fastin elastin assay per manufacturers protocol (Biocolor, County […].). Briefly, gels were solubilized in 0.25 M oxalic acid by incubating at 100° C. for 1 hr. Elastin was precipitated and samples were then centrifuged at 11,000×g for 10 min. The solubilized collagen supernatant was removed and the elastin pellet was stained by Fastin Dye Reagent for 90 min at room temperature. Samples were centrifuged at 11,000×g for 10 min and unbound dye in the supernatant was removed. Dye from the elastin pellets was released by the Fastin Dye Dissociation Reagent, and 100 μL samples were transferred to a 96-well plate (Costar). Absorbance was measured at 513 nm, and elastin content was calculated from an α-elastin standard curve.

T1 sequence (P02453 162-1217 limits assumed): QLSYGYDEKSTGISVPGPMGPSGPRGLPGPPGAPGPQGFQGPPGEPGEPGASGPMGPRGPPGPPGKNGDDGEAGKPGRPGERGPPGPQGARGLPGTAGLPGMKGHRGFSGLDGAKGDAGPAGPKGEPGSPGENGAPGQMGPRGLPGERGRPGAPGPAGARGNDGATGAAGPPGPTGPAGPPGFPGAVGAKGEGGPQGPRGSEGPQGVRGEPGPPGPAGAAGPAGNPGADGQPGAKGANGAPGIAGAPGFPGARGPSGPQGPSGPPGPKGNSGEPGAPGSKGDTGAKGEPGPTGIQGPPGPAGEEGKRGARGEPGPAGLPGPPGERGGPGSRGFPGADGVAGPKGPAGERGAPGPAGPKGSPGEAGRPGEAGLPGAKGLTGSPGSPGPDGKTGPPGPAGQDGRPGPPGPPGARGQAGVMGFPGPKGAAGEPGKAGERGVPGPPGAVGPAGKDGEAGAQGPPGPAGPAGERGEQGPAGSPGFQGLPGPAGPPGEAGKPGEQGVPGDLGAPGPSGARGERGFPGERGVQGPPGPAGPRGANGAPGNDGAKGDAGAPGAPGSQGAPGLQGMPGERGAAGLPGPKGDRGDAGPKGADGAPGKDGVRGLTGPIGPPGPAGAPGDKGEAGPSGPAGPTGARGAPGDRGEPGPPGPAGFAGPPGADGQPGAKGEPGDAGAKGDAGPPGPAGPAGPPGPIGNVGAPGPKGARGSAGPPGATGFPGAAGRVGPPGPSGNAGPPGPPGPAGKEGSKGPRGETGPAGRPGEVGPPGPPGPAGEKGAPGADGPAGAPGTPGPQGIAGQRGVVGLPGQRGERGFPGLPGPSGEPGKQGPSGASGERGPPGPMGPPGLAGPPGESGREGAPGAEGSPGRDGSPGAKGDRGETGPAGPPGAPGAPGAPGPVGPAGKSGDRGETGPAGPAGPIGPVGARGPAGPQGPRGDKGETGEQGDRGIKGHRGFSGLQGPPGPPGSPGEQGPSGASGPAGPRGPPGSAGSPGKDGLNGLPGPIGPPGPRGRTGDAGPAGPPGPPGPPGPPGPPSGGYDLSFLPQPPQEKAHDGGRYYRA
T1 sequence (P02465 80-1117 limits assumed): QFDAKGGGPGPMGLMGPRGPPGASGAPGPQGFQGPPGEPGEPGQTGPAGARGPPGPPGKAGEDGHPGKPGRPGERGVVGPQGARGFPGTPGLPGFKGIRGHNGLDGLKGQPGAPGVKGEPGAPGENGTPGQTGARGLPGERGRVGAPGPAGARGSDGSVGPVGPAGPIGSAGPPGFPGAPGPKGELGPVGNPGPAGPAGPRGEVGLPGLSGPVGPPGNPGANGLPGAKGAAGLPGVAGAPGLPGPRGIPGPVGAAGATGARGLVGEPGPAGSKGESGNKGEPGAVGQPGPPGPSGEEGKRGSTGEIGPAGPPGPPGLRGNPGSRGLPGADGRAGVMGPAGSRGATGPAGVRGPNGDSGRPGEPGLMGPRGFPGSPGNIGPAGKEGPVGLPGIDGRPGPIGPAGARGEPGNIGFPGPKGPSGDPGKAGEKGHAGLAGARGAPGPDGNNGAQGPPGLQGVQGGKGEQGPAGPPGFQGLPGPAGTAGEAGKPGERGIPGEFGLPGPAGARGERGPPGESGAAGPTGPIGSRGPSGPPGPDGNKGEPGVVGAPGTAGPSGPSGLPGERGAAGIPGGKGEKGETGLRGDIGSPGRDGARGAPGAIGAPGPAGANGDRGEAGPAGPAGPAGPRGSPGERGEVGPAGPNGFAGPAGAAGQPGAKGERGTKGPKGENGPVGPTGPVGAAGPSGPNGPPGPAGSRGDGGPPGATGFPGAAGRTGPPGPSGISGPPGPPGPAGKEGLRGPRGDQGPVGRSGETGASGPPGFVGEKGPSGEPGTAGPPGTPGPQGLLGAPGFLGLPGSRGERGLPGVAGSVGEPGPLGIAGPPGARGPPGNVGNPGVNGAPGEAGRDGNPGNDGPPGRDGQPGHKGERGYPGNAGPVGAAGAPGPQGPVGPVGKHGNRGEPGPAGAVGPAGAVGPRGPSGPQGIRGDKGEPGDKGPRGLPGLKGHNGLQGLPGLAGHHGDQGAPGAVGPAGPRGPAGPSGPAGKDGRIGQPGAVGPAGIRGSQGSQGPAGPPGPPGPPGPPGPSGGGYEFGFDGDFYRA

dermatan sulfate [DS]
Stiffness of collagen gel (storage modulus G') (collagen type I gels): increase the stiffness of the resulting collagen gel over untreated collagen
Gel compaction, statistical significance [1]: significant compared to collagen
Elastin production (HCA SMCs): significantly decreased elastin production over untreated collagen
